According to patent US20130047297A1, “POLYNUCLEOTIDE MOLECULES FOR GENE REGULATION IN PLANTS” (priority 2010, published 2013):
d = 2'-deoxy (DNA); r = 2'-OH (RNA)

Columns and labels:
Assay type in all cases: in vivo
[1] = tested on: Glyphosate-sensitive Palmer amaranth (Amaranthus palmeri) plants; test: HPPD, PPO, TIF anti-sense ssDNA with mesotrione, fomesafen, atrazine, plant height (Example 28, Tables 18 and 19); conditions: for Plant height (mm): four days after herbicide treatment
Method: The herbicidal activity of ssDNA polynucleotides that target the enzymes […] and protoporphyrinogen oxidase (PPO), and a transcription initiation factor (TIF), and their effect on the herbicide activity when used in combination with the herbicides mesotrione, fomesafen, and atrazine in Palmer amaranth was investigated.
Glyphosate-sensitive Palmer amaranth (Amaranthus palmeri) plants were grown in 4-inch square pots with Sun Gro® Redi-Earth seedling mix containing 3.5 kg/cubic meter Osmocote® 14-14-14 fertilizer in a greenhouse with 14 h photoperiod and a daytime temperature of 30 degrees Celsius and night temperature of 20 degrees Celsius. The plants were sub-irrigated as necessary.
Plants at 10 to 15 cm height were pre-treated manually with 40 microliters (4 fully expanded mature leaves were treated with 10 microliters of solution per leaf on each plant) of a buffer-surfactant solution (as a control; 0.5% Silwet L-77 and 2% ammonium sulfate), or a buffer-surfactant-ssDNA polynucleotide mixture of the anti-sense oligonucleotides targetting HPPD, PPO, or TIF. Some plants were left untreated and were used as controls. […] Crop oil concentrate (COC) at 1% was added to all herbicide treatments. A low rate of each herbicide ([…], equivalent to ⅛ of the recommended field rate; […], equivalent to 1/22 of the recommended field rate; […], equivalent to ⅛ of the recommended field rate,) was used to be able to detect any improvement of herbicide activity by the oligonucleotide mixture.
Plant height was determined at four days after herbicide treatment. Data were collected from one experiment with four replications per treatment.

[2] = tested on: Palmer amaranth; test: Combinations of EPSPS, TIF and ddATPase polynucleotides then glyphosate (Example 26, Tables 12 and 13)
Method: Solutions of the polynucleotides were prepared and applied to the leaves of Palmer amaranth using the protocols described in Table 12.

[3] = tested on: Palmer amaranth phytoene desaturase (PDS); test: Sequence specificity of PDS dsRNA on Palmer amaranth, bleaching (Example 11); conditions: for bleaching of leaves: 0.6 micromolar polynucleotide, 40 microliters per plant, observed 3 days post treatment; for bleaching of leaves (FIG. 17): separate assay
Method: Palmer amaranth plants having 16 copies of EPSPS and 5-8 inches high were treated with 0.1% Silwet L-77 solution freshly made with ddH2O. Four fully expanded leaves per plant were dipped into the Silwet L-77 solution for a few seconds, and allowed to dry for 30 minutes to 1 hour before application of the polynucleotide composition. Individual polynucleotide solutions were made for each of the 678 by Palmer PDS dsRNA, 198 by Palmer PDS dsRNA, the 685 by Nicotiana benthamiana PDS dsRNA, and the 192 by Nicotiana benthamiana PDS dsRNA (0.6 micromolar polynucleotide in 0.01% Silwet L-77, 5 mM sodium phosphate buffer, pH 6.8). 10 microliters of polynucleotide solution (or buffer as a control) was applied to the top surface of each of the four pre-treated leaves per plant to provide a total of 40 microliters for each plant. Plants were kept in a growth chamber, and leaf bleaching was observed 3 days post treatment.

[4] = pre-treatment: Buffer (0.5% Silwet L-77 and 2% ammonium sulfate), herbicide 24 h later (mesotrione 13, fomesafen 23 grams per hectare, 1% COC)
[5] = pre-treatment: Untreated, herbicide only (mesotrione 13, fomesafen 23, atrazine 170 grams per hectare of active ingredient, 1% COC)
[6] = protocol 3, 29 g/acre, copy number 16, 13 DAT

CS(=O)(=O)c1ccc(C(=O)C2C(=O)CCCC2=O)c([N+](=O)[O-])c1 [mesotrione]
Plant height (mm) [1, 4]: 179 mm | Plant height (mm) [1, 5]: 180 mm

CS(=O)(=O)NC(=O)c1cc(Oc2ccc(C(F)(F)F)cc2Cl)ccc1[N+](=O)[O-] [fomesafen]
Plant height (mm) [1, 4]: 139 mm | Plant height (mm) [1, 5]: 158 mm

IDT [4]: Palmer/EPSPS dsRNA, SEQ ID NO. 89, 90 (chain 1 UGCAAGGUCACCUGGACAGAGAAA; chain 2 UAUUCUCUGUCCAGGUGACCUUGCAAC; listed as RNA, chemistry not fully specified)
Results: % stunted [2, 6]: 51% stunted

IDT [5]: Palmer/EPSPS dsRNA (21-mer) with blunt ends, SEQ ID NO. 91, 92 (chain 1 AACAUGAACAAAAUGCCAGAU; chain 2 AUCUGGCAUUUUGUUCAUGUU; RNA, backbone not given here)
Results: % stunted ([2]; protocol 1, 0.29 g/acre, copy number 33, 54, 55, 18 DAT): 71% | Results: % stunted ([2]; protocol 1, 0.29 g/acre, copy number 34, 36, 54, 22 DAT): 14.1% | Results: % killed ([2]; protocol 1, 2.9 g/acre each, copy number 34, 36, 54, 22 DAT): 100% kill | Results: % killed ([2]; protocol 1, 2.9 g/acre, copy number 33, 54, 55, 18 DAT): 100% killed

IDT [3]: Palmer/EPSPS dsRNA, SEQ ID NO. 87, 88 (chain 1 GGUCGACAACUUGCUGUAUAGUGA; chain 2 AUCACUAUACAGCAAGUUGUCGACCUC; chain 1: sugars from the 5' end r23 d1, 3' dT, backbone not given here; chain 2: RNA, backbone not given here)
Results: % stunted [2, 6]: 51% stunted

CCNc1nc(Cl)nc(NC(C)C)n1 [atrazine]
Plant height (mm) [1, 5]: 146 mm

B1: HPPD anti-sense ssDNA oligonucleotides: 8 HPPD anti-sense ssDNA oligonucleotides (SEQ ID NOS:141-148) (nucleic acid)
antisense 1: TCCGTAGCTTACATACCGAAG
antisense 2: TCCAAGTGAATAGGAGAAACA
antisense 3: AGCAGCTTCTGCGTCTTCTAC
antisense 4: ACAGCACGCACGCCAAGACCG
antisense 5: CGATGTAAGGAATTTGGTAAA
antisense 6: CGAGGGGATTGCAGCAGAAGA
antisense 7: GTAGGAGAATACGGTGAAGTA
antisense 8: GACCCCAAGAAAATCGTCTGC
modifications: DNA, backbone not given here
growth reduction relative to the buffer-surfactant control ([1]; ssDNA pre-treatment without herbicide): 32% | Palmer amaranth plant height ([1]; ssDNA pre-treatment without herbicide, 40 microliters per plant in 0.5% Silwet L-77 and 2% ammonium sulfate, buffer-surfactant control 185 mm): 125 mm

B2: 198 by Palmer PDS dsRNA: dsRNA to positions 797-994 of SEQ ID NO:37 (nucleic acid, listed as Amaranthus palmeri)
sense: ACCGATTCCTGCAGGAGAAACATGGTTCTAAGATGGCCTTCCTAGACGGAAACCCTCCAGAGAGGCTGTGCATGCCTATTGTTAAACACATCGAGTCACTAGGTGGTGAAGTTAAACTTAACTCTCGTATACAAAAGATTCAGTTGGACCAGAGTGGAAGCGTGAAGAGTTTTTTGCTAAATAACGGGAGGGAAATAC
modifications: complementary strand
bleaching of leaves [3]: showed bleaching of leaves | bleaching of leaves (FIG. 17) [3]: showed bleaching of leaves

B3: 678 by Palmer PDS dsRNA: dsRNA to positions 317-994 of SEQ ID NO:37 (nucleic acid, listed as Amaranthus palmeri)
sense: TAGGAGGAAAGGTTGCAGCGTGGAAGGATGAGGATGGTGACTGGTATGAGACTGGGCTACATATATTCTTTGGGGCATATCCAAATGTCCAAAATCTATTTGGAGAACTTGGTATAAATGACCGACTGCAATGGAAGGAGCACTCTATGATTTTTGCAATGCCCAGCAAGCCCGGTGAATTCAGTCGCTTTGATTTTCCCGAAATCCTGCCTGCACCATTAAATGGCATATGGGCAATCCTAAGAAATAATGAAATGCTAACCTGGCCAGAAAAAATCAAGTTTGCCATTGGCTTGTTGCCTGCTATGGCAGGCGGACAGTCATATGTTGAAGCACAAGATGGTTTGAGTGTCCAAGAGTGGATGAGAAAACAAGGAGTACCCGATCGTGTAACTGATGATGTGTTTATTGCCATGTCAAAGGCACTGAACTTCATAAATCCCGATGAACTTTCAATGCAGTGCATCTTGATTGCTCTGAACCGATTCCTGCAGGAGAAACATGGTTCTAAGATGGCCTTCCTAGACGGAAACCCTCCAGAGAGGCTGTGCATGCCTATTGTTAAACACATCGAGTCACTAGGTGGTGAAGTTAAACTTAACTCTCGTATACAAAAGATTCAGTTGGACCAGAGTGGAAGCGTGAAGAGTTTTTTGCTAAATAACGGGAGGGAAATAC
modifications: complementary strand
bleaching of leaves [3]: showed bleaching of leaves | bleaching of leaves (FIG. 17) [3]: showed bleaching of leaves
